Key:
COX-2 = molecular target: T1, COX-2 (Homo sapiens, UniProt P35354); experiment: Whole cell assay for COX-2 using CHO transfected cell lines (inhibition of PGE2 production); type: cell-based
T1 construct: expressed in transfected cells; host or cells: CHO cells stably transfected with pCDNAIII (CHO[hCOX-2])
T1 sequence (P35354 18-604): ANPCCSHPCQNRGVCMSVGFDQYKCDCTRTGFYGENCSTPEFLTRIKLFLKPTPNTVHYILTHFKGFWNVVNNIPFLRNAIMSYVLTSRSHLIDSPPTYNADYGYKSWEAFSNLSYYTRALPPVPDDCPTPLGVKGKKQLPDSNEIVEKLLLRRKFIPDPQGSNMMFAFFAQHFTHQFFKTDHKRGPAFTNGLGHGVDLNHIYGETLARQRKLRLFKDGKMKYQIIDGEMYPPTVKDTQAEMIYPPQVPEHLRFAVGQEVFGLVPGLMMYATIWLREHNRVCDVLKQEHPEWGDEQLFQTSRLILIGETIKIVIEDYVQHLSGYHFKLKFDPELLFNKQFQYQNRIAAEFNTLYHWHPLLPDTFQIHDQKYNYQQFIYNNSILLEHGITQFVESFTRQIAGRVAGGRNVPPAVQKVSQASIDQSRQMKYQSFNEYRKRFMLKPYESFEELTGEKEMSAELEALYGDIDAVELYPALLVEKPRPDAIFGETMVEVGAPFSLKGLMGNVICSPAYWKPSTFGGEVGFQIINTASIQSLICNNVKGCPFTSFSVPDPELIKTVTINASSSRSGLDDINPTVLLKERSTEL
Procedure: Chinese hamster ovary (CHO) cell lines which have been stably transfected with an eukaryotic expression vector pCDNAIII containing either the human COX-1 or COX-2 cDNA's are used for the assay. These cell lines are referred to as CHO [hCOX-1] and CHO [hCOX-2], respectively. For cyclooxygenase assays, CHO[hCOX-1] cells from suspension cultures and CHO[hCOX-2] cells prepared by trypsinization of adherent cultures are harvested by centrifugation (300 x g, 10 min) and washed once in HBSS containing 15 mM HEPES, pH 7.4, and resuspended in HBSS, 15 mM HEPES, pH 7.4, at a cell concentration of 1.5 x 10^6 cells/ml. […] Cells are then challenged in the presence or absence of drug with the AA/HBSS solution to yield a final concentration of 0.5 µM AA in the CHO[hCOX-1] assay and a final concentration of 10 µM AA in the CHO[hCOX-2] assay. […] Cyclooxygenase activity in the absence of test compounds is determined as the difference in PGE2 levels of cells challenged with arachidonic acid versus the PGE2 levels in cells mock-challenged with ethanol vehicle. Inhibition of PGE2 synthesis by test compounds is calculated as a percentage of the activity in the presence of drug versus the activity in the positive control samples.
In the assay, inhibition is determined by measuring the amount of prostaglandin E2 (PGE2) synthesized in the presence of arachidonic acid, COX-1 or COX-2 and a putative inhibitor. […]

COX-1 = molecular target: T2, COX-1 (Homo sapiens, UniProt P23219); experiment: Whole cell cyclooxygenase assay in U-937 cells (COX-1, inhibition of PGE2 production); type: cell-based
T2 construct: human U-937 cells (which specifically express COX-1); endogenous in cells; host or cells: human U-937 cells
Procedure: Compounds are tested as inhibitors of cyclooxygenase activity in whole cell cyclooxygenase assays. Both of these assays measure prostaglandin E2 synthesis in response to arachidonic acid, using a radioimmunoassay. Cells used for these assays are human osteosarcoma 143 cells (which specifically express COX-2) and human U-937 cells (which specifically express COX-1). In these assays, 100% activity is defined as the difference between prostaglandin E2 synthesis in the absence and presence of arachidonate.
For cyclooxygenase assays, osteosarcoma cells are cultured in 1 mL of media in 24-well multidishes (Nunclon) until confluent (1-2 x 10^5 cells/well). U-937 cells are grown in spinner flasks and resuspended to a final density of 1.5 x 10^6 cells/mL in 24-well multidishes (Nunclon). Following washing and resuspension of osteosarcoma and U-937 cells in 1 mL of HBSS, 1 µL of a DMSO solution of test compound or DMSO vehicle is added, and samples gently mixed. All assays are performed in triplicate. Samples are then incubated for 5 or 15 minutes at 37C, prior to the addition of arachidonic acid. Arachidonic acid (peroxide-free, Cayman Chemical) is prepared as a 10 mM stock solution in ethanol and further diluted 10-fold in HBSS. An aliquot of 10 µL of this diluted solution is added to the cells to give a final arachidonic acid concentration of 10 µM. Control samples are incubated with ethanol vehicle instead of arachidonic acid. Samples are again gently mixed and incubated for a further 10 min. at 37C. For osteosarcoma cells, reactions are then stopped by the addition of 100 µL of 1N HCl, with mixing and by the rapid removal of the solution from cell monolayers. For U-937 cells, reactions are stopped by the addition of 100 µL of IN HCl, with mixing. Samples are then neutralized by the addition of 100 µL of 1N NaOH and PGE2 levels measured by radioimmunoassay.
In the assay, inhibition is determined by measuring the amount of prostaglandin E2 (PGE2) synthesized in the presence of arachidonic acid, COX-1 or COX-2 and a putative inhibitor.
The results for inhibition of PGE2 production may be seen in Table 7.

T2 sequence (P23219 24-599): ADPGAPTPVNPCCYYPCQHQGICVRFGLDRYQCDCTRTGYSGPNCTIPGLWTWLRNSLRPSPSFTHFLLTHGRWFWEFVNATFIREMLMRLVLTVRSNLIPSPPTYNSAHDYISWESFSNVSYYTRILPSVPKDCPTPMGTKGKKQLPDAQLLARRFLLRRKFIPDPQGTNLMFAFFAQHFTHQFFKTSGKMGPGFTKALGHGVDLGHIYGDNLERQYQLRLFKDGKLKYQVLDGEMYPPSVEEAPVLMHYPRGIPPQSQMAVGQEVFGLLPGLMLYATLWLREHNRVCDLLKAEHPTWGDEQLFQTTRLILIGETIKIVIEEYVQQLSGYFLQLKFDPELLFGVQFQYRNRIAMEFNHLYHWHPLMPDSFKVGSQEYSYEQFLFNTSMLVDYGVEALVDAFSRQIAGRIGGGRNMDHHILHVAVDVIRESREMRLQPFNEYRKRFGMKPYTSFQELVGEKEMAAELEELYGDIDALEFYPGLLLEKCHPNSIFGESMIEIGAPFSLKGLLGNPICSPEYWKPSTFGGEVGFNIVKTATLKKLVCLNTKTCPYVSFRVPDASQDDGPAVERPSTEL

| IC50 (COX-1) [nM] | SMILES | IC50 (COX-2) [nM] |
| --- | --- | --- |
| 2000 | CC1(c2ccsc2)C(=O)C(c2ccccc2)=C1c1ccc(S(C)(=O)=O)cc1 (stereo not drawn) [Example 6, 4-Methyl-3-(4-methylsulfonylphenyl)-2-phenyl-4-(3-thienyl)-2-cyclobuten-1-one] | 25 |
| 1100 | CC1(C)C(=O)C(c2ccc(S(C)(=O)=O)cc2)=C1c1ccccc1 [Example 30, 4,4-dimethyl-2-(4-methylsulfonylphenyl)-3-phenyl-2-cyclobuten-1-one] |  |
| 1000 | C=C1CC(c2ccc(S(C)(=O)=O)cc2)=C1c1ccccc1 [Example 39, 3-Methylene-1-(4-methylsulfonylphenyl)-2-phenyl-1-cyclobutene] |  |

| SMILES | IC50 (COX-1) [nM] | IC50 (COX-2) [nM] |
| --- | --- | --- |
| C/C(CO)=C1\CC(c2ccc(S(C)(=O)=O)cc2)=C1c1ccccc1 [Example 42] | 1500 | 22 |
